Laboratory results: patent publication US6858574B2, “Process for making perfume containing surfactant compositions having perfume burst when diluted” (Unilever Home & Personal Care USA, division of Conopco, Inc., priority 2002, dated 2005)
Like-named read-outs stand apart in the source and are kept apart here. Marks after values point to notes of the source that are not given here.

What was measured:
[1] = Fragrance burst (perfume headspace) of single perfumes in 5% sodium laurate shower product diluted through the CMC; type: physicochemical; details: diluted through the CMC (FIG. 3)
Procedure: It is precisely this “burst” or increase in headspace (e.g., from start of dilution up until CMC) and methods for determining in what compositions it will occur that is the basis of the subject invention.
Several different fragrance molecules were tested experimentally to validate the theoretical predictions. Limonene, p-cymene, α-pinene, tetrahydrolinolool, α-ionone, γ-methyl ionone, benzyl acetate and 2-phenoxylethanol were tested in a 5% sodium laurate shower product and diluted a number of times through the CMC (FIG. 3).

[2] = GC headspace vs dilution of components of a perfume mixture in 5 wt. % sodium laurate formulation; type: physicochemical; details: twelve-component perfume mixture, 5 wt. % sodium laurate (FIG. 9)
Procedure: A typical fully formulated perfume used in a commercial product, e.g., personal wash formulation, usually is a multi-component composition in which the properties of each perfume component can vary dramatically. A typical perfume mixture in a 5 wt. % sodium laurate formulation was tested for its “perfume burst” behaviour upon dilution. […] Each component has a unique dilution curve (GC headspace vs. dilution factor) governed by the factors (hydrophobicity, volatility, etc) discussed previously.

[3] = cited from earlier work
[4] = Critical micellization concentration (CMC) of surfactants; type: physicochemical
Description: As noted, the perfume burst is affected not only by the perfume properties, but also by properties of the formulation in which the perfume is found. Thus, the number and type of surfactant micelles found in a surfactant solution also has an effect. […] The critical micellization concentration is defined as the surfactant concentration at which micelles begin to form from unassociated surfactant monomers (M. J. Rosen, Surfactants and Interfacial Phenomena, 2nd Ed., 1989). Conversely, in a surfactant with low critical micelle concentration (e.g., one where micelles do form easily or, stated differently, don't break apart as readily once formed), a perfume, being generally more hydrophobic, tends to stay in the surfactant more readily. As a result, the perfume will tend not to “burst” (increase perfume headspace) as readily and, to achieve more headspace, more dilution may be required. The CMC of the surfactant system also affects “perfume burst”. Thus, for example, a surfactant system of relatively low CMC (e.g., sodium lauryl ether sulfate, also known as SLES) lowers the PBI and can greatly reduce the expected “perfume burst” on dilution. By contrast, surfactant system of relatively higher CMC (e.g., sodium laurate compared to SLES) would raise PBI and can thus increase “perfume burst” on dilution.

[5] = Fragrance burst in shower liquids with surfactants of different CMC; type: physicochemical; details: 5% sodium laureth sulfate (CMC=0.0011) vs 5% sodium laurate (CMC=0.005) (FIG. 8)
Procedure: Limonene and γ-Methyl Ionone were tested in two different shower liquid samples. One product was formulated with 5% sodium laurate (CMC=0.005 wt/wt) and the second with 5% sodium laureth sulfate (CMC=0.0011 wt/wt) (FIG. 8).

[6] = Fragrance burst in shower liquids with different surfactant concentrations; type: physicochemical; details: sodium laurate at 5, 10, 15 (20) wt. % (FIG. 6)

Compound: OCCOc1ccccc1 [2-Phenoxyethanol]
- fragrance burst [1]: no fragrance burst at all

Compound: CC(=O)OCc1ccccc1 [Benzyl Acetate]
- dilution behaviour of component (GC headspace) [2]: perfume headspaces decrease upon dilution
- fragrance burst [1]: no fragrance burst at all

Compound: CCCCCCCCCCCCOC(=O)CCS(=O)(=O)[O-].[Na+] [C12H25OOC(CH2)2SO3^−Na^+ (SCI)]
- CMC (wt./wt.) ([3]; 30° C.): 0.00076* (30° C.) wt./wt.

Compound: CCCCCCCC(=O)NCCC[N+](C)(C)CC(=O)[O-] [Caprylamidopropyl betaine]
- CMC (wt./wt.) [4]: 0.00032 wt./wt.

Compound: C=C(C)[C@H]1CC=C(C)CC1 [Limonene]
- effect of surfactant CMC on fragrance burst [5]: lower overall fragrance burst
- effect of surfactant concentration on fragrance burst [6]: maximum fragrance burst is reached with fewer dilutions in the 5% soap product
- fragrance burst [1]: ~95%

Compound: CC(C)[C@@H]1CC[C@@H](C)CC1=O [Menthone]
- effect of surfactant concentration on fragrance burst [6]: maximum fragrance burst is reached with fewer dilutions in the 5% soap product

Compound: CCCCCCCCCCCC(=O)[O-].[Na+] [Sodium laurate]
- CMC ([3]; Example 9): 0.005 wt/wt
- CMC ([3]; Example 11): 0.5 wt. %

Compound: CCC(C)(O)CCCC(C)C (centres unmarked) [Tetrahydrolinolool]
- fragrance burst [1]: 320%

Compound: Cc1ccc(C(C)C)cc1 [p-Cymene]
- fragrance burst [1]: 120%

Compound: CC(=O)/C=C/C1C(C)=CCCC1(C)C (stereo not drawn) [α-ionone]
- fragrance burst [1]: 430%

Compound: CC1=CCC2CC1C2(C)C (stereo not drawn) [α-pinene]
- fragrance burst [1]: 50%

Compound: CC(=O)/C(C)=C/C1C(C)=CCCC1(C)C (centres unmarked) [γ-methyl ionone]
- effect of surfactant CMC on fragrance burst [5]: lower overall fragrance burst
- dilution behaviour of component (GC headspace) [2]: as high as seven times
- effect of surfactant concentration on fragrance burst [6]: maximum fragrance burst is reached with fewer dilutions in the 5% soap product
- fragrance burst [1]: 460%

Compound: Sodium laureth sulfonate (2EO)
- CMC (wt./wt.) ([3]; 50° C.): 0.0011*** wt./wt.
- CMC ([3]; Example 9): 0.0011 wt/wt
- CMC ([3]; Example 11): 0.1 wt. %

Compound: Sodium laureth sulfonate (3EO)
- CMC (wt./wt.) ([3]; 50° C.): 0.00084*** wt./wt.
